Laboratory results published in ChEMBL document CHEMBL1201862, “PubChem BioAssay data set” (2004).
Active and inactive are the calls of the source.

Key:
[1] = HEp-2 cell cytotoxicity, dose response, cytotoxicity control for RSV inhibitor project, HTS (AID 2410); type: functional; conditions: human respiratory syncytial virus
[2] = biological target: T1, Heat shock factor protein 1 (Mus musculus, UniProt P38532); assay: inhibition of MG132-induced HSE-luciferase signal, confirmation, cell-based, NIH3T3, luminescence, dose retest (AID 2382); type: functional;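 also: NIH3T3 fibroblasts with HSF1-driven luciferase reporter stressed by proteasome inhibitor MG132; luminescence from HSF1-driven luciferase expression after 8 hours of MG132 stress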
T1 sequence (P38532 whole entry): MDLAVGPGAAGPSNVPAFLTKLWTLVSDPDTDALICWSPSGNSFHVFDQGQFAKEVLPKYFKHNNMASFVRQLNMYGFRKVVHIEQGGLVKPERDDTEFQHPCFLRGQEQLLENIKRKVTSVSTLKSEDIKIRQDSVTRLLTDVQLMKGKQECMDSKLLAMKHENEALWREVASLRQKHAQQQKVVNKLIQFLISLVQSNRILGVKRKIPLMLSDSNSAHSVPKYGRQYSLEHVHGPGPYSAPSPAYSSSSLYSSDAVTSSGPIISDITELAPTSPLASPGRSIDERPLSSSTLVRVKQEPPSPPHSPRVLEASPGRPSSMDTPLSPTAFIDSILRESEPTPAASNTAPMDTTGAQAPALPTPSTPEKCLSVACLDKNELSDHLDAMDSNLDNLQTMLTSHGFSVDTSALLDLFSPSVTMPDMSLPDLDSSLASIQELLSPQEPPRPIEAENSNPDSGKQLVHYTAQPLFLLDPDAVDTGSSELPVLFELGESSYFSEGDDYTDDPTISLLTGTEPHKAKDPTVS

[3] = biological target: Eukaryotic translation initiation factor 4E (Mus musculus, UniProt P63073); assay: eIF4E–eIF4G protein interaction inhibitors, dose response, biochemical, TR-FRET (AID 855); type: functional;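 also: potency for disrupting eIF4E binding to eIF4GI seen as loss of FRET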
Eukaryotic translation initiation factor 4E, sequence (P63073 whole entry): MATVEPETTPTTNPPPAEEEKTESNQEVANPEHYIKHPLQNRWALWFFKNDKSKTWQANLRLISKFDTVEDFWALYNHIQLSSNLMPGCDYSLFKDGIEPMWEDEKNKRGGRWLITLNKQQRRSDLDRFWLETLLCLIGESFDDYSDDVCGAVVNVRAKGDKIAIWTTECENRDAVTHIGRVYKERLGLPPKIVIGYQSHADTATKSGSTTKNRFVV

[4] = biological target: T2, Rac GTPase-activating protein 1 (Homo sapiens, UniProt Q9H0H5); assay: MgcRacGAP GTPase-activating activity inhibitors, confirmation, biochemical, ADP Hunter fluorescence, primary and confirmatory (AID 624330); type: functional
T2 sequence (Q9H0H5 whole entry): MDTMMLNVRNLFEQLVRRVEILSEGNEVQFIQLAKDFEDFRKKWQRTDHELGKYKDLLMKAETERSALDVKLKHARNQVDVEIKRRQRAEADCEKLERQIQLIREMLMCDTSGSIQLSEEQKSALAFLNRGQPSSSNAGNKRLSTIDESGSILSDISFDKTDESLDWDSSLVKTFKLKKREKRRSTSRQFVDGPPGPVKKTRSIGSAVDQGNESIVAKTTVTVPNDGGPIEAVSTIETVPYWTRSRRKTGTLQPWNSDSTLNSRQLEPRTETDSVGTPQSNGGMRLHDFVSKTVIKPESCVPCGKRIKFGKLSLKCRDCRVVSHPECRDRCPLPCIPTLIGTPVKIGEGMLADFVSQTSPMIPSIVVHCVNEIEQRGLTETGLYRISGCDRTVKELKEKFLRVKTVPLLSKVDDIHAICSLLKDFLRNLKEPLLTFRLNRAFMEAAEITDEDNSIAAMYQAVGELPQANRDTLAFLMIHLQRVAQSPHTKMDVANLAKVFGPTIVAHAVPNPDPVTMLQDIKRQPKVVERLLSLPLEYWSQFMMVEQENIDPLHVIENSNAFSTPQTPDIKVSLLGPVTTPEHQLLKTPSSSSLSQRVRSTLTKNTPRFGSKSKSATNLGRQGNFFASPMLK

[5] = biological target: T3, Calpain-2 catalytic subunit (Sus scrofa, UniProt P43367); assay: pig calpain II inhibitor potency, dose response, biochemical, fluorogenic peptide substrate (AID 1420); type: functional
T3 sequence (P43367 whole entry): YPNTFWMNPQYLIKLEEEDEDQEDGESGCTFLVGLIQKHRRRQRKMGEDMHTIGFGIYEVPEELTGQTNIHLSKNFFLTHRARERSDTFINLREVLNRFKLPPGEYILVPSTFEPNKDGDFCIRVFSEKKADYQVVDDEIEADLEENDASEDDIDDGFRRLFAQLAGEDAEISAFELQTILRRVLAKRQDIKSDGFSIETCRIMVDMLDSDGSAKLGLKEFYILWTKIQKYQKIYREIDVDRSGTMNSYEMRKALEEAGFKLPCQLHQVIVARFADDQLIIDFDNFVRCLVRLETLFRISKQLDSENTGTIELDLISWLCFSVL

[6] = biological target: T4, Coagulation factor XII (Homo sapiens, UniProt P00748); type: functional;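 also: activated factor XIIa alpha cleaving a fluorogenic AMC peptide substrate; inhibitor potency from loss of enzyme activity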
T4 sequence (P00748 whole entry): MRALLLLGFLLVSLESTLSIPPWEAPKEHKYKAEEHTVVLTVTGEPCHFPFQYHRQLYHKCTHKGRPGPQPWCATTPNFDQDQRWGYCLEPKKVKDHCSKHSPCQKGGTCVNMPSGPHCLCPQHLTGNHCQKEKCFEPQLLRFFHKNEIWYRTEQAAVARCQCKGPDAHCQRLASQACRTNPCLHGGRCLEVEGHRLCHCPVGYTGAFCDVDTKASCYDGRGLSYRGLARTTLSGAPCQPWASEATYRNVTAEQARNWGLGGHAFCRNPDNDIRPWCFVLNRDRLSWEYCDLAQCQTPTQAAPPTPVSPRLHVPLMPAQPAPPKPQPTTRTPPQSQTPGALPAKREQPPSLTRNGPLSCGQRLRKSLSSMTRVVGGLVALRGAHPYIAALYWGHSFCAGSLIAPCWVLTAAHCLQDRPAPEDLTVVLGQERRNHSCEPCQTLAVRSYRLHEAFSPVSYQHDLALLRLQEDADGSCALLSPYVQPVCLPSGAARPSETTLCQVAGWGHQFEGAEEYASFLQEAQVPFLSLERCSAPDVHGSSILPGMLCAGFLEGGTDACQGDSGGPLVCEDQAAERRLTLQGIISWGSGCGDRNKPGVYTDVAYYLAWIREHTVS

[7] = biological target: T5, Corticotropin-releasing factor receptor 2/Corticotropin-releasing factor-binding protein (Homo sapiens, UniProt P24387+Q13324); assay: activators of CRF receptor 2 with binding protein – uHTS hits, confirmation (AID 602473); type: functional; conditions: read-out: EC50_Mean
T5 sequence (Q13324 whole entry): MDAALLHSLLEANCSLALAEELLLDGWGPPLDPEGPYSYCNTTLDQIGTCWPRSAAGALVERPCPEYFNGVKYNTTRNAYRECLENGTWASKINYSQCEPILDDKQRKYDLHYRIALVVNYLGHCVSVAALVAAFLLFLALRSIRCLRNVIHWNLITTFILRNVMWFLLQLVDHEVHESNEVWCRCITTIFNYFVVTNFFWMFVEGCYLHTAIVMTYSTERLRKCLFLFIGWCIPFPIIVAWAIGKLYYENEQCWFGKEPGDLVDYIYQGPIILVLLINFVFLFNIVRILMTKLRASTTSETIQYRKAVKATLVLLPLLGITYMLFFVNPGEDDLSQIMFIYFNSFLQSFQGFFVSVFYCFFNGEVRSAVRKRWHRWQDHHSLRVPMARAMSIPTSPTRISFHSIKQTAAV
T5 sequence (P24387 whole entry): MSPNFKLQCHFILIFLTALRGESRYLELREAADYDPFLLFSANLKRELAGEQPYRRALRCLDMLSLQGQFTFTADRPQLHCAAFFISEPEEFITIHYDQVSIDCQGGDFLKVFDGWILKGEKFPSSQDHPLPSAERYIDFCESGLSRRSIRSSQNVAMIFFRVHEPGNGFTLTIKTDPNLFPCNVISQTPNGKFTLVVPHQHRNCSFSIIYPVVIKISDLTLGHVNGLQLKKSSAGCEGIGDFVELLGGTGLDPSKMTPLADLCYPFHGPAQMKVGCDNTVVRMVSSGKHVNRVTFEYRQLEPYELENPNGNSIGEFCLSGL

[8] = biological target: Cytochrome P450 2D6 (Homo sapiens, UniProt P10635);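 also: CYP2D6 member of a cytochrome P450 panel assay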
Cytochrome P450 2D6, sequence (P10635 whole entry): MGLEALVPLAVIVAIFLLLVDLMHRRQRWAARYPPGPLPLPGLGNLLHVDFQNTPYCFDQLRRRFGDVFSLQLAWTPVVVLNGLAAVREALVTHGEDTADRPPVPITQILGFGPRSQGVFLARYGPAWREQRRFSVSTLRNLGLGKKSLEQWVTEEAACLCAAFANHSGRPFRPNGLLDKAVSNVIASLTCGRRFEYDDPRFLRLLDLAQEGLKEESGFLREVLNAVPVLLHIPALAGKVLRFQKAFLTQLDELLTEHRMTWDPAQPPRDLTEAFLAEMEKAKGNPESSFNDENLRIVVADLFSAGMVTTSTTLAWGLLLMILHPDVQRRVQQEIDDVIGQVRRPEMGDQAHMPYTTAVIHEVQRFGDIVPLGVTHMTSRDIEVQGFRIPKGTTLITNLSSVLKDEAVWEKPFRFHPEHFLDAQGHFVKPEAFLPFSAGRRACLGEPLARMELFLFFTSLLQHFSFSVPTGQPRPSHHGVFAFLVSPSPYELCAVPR

[9] = biological target: T5, Corticotropin-releasing factor receptor 2/Corticotropin-releasing factor-binding protein; assay: Dose Response confirmation of uHTS hits for small molecule antagonists of the CRF-binding protein and CRF-R2 receptor complex.; type: functional; conditions: read-out: IC50_Mean
[10] = CRF-BP/CRF-R2 complex antagonists, dose response, cell-based, uHTS hits, 384-well (AID 651639); type: functional, Homo sapiens; conditions: read-out: IC50_Mean
[11] = biological target: Cytochrome P450 2C9 (Homo sapiens, UniProt P11712)
Cytochrome P450 2C9, sequence (P11712 whole entry): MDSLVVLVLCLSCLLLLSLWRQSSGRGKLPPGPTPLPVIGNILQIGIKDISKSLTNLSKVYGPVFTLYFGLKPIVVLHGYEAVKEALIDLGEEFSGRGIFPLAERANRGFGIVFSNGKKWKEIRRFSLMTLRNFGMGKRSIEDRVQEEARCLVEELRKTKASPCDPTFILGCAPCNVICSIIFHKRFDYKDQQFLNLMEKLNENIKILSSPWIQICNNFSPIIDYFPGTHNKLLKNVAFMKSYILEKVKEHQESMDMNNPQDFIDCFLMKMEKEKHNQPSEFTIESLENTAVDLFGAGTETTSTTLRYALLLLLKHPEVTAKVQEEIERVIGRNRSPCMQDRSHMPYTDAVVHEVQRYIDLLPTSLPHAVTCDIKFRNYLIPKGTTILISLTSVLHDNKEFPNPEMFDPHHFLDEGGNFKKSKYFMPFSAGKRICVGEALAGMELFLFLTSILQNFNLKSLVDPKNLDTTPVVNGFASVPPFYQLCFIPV

[12] = biological target: T6, Replicative DNA helicase DnaB (Mycobacterium tuberculosis, UniProt P9WMR3); assay: DnaB intein splicing inhibitors, dose response, biochemical, cell-free fluorescence (AID 449749); type: functional
T6 sequence (P9WMR3 whole entry): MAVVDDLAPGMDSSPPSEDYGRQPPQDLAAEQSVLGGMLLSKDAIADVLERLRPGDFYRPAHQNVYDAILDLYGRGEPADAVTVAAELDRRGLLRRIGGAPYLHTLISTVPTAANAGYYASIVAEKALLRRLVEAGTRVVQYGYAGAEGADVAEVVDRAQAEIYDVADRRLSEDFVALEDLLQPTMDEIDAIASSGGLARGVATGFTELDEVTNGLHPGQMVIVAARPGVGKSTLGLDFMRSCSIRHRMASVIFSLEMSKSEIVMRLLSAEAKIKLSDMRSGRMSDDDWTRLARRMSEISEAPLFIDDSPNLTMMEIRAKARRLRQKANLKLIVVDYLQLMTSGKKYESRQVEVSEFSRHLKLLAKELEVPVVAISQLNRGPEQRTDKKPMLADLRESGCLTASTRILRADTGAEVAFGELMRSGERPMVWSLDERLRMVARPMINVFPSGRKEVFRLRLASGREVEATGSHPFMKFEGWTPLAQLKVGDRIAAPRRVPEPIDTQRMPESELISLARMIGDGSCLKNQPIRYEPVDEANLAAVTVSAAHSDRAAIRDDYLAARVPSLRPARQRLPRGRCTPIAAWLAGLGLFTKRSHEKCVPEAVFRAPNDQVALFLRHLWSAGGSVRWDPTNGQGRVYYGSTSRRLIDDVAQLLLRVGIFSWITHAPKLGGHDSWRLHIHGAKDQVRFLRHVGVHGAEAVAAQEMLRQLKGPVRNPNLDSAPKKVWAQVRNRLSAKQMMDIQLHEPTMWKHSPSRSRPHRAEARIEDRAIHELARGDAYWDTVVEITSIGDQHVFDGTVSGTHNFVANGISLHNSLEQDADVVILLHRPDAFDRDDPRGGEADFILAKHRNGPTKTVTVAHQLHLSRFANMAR

[13] = biological target: T7, Protein RecA (Mycobacterium tuberculosis, UniProt P9WHJ3); assay: Fluorescence Cell-Free Homogeneous Dose Retest to Identify Inhibitors of RecA-Intein Splicing Activity. [Related pubchem assays (depositor defined):AID2097, AID2223, AID489010, AID492950]; type: functional
T7 sequence (P9WHJ3 whole entry): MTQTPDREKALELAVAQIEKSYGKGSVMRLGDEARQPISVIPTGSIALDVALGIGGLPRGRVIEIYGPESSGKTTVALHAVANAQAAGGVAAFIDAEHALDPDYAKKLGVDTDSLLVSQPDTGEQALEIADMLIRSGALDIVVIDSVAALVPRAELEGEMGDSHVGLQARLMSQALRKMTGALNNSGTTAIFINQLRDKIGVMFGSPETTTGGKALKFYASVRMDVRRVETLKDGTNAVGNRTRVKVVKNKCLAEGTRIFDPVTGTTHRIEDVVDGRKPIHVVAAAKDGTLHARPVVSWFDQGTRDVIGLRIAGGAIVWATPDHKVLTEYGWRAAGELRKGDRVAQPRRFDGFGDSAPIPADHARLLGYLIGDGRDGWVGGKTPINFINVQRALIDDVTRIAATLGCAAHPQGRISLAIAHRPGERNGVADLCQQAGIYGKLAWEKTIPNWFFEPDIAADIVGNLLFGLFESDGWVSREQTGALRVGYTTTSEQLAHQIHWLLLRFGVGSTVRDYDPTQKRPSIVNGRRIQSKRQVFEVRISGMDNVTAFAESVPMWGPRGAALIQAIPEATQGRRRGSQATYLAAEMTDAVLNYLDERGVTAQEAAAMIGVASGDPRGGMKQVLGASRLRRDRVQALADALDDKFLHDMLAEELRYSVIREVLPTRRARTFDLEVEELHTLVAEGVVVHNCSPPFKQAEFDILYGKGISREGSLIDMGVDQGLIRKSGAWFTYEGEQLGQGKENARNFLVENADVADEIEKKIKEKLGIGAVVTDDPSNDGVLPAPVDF

[14] = P. falciparum Dd2 growth inhibitors, dose response, SYBR Green, cherry-picked samples (AID 1159567); type: functional, cell-based
[15] = tested on: INS1; assay: beta cell apoptosis inhibitors, cytokine rescue, dose response, luminescence, retest (AID 449756); type: functional, cell-based; conditions: Rattus norvegicus;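 also: cell death triggered by IL-1 beta plus TNF-alpha plus IFN-gamma mixture; protective hits raise ATP signal compared with cytokine alone wells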

CCOC(=O)c1c(N)sc2c(O)c(Br)ccc12
CC50 [1]: 47 µM (active) | EC50 [2]: > 195 µM (not active) | IC50 [3]: > 64 µM (inactive) | IC50 [4]: 58.6 µM (active)

Cc1cc(C)cc(NC(=O)c2ccccc2CC[N+](=O)[O-])c1
IC50 [3]: > 64 µM (inactive)

COC(=O)CC(NS(=O)(=O)c1cccs1)c1cccc2ccccc12 (configuration not stated)
IC50 [5]: > 50 µM (not active)

Cc1ccc(S(=O)(=O)N(Cc2ccccc2)c2ccccc2C(=O)NCc2ccco2)cc1
IC50 [6]: > 50 µM (inactive) | EC50 [7]: > 53 µM (inactive) | AC50 [8]: 15.8 µM (inconclusive) | IC50 [9]: < 0.368 µM (active) | IC50 [10]: 6.81 µM (active)

C/C(=N\NC(=O)CCn1nnc2ccccc21)c1cccs1
IC50 [6]: > 50 µM (inactive)

CSc1nsc(SCC(=O)N2CCc3ccccc32)n1
IC50 [3]: > 64 µM (inactive)

CCN(CC)S(=O)(=O)c1ccc2oc(C(=O)NCc3ccc(C)cc3)c(C)c2c1
IC50 [5]: 26.3 µM (not active)

Cc1ccc(-c2nn(-c3ccccc3)cc2/C=N/NS(=O)(=O)c2ccccc2)cc1
IC50 [6]: > 50 µM (inactive)

CCCCc1nc(O)c(C#N)c2c1CCCC2
IC50 [6]: > 50 µM (inactive) | AC50 [11]: 0.251 µM (inconclusive) | AC50 [8]: 35.5 µM (inconclusive)

CCOc1ccccc1Nc1nnc(Cc2ccccc2Cl)c(O)n1
AC50 [12]: > 380 µM (inactive) | IC50 [5]: > 50 µM (not active) | EC50 [13]: 21 µM (active)

C=CCSc1nc(C)c(CC=C)c(O)n1
IC50 [6]: > 50 µM (inactive)

CCOC(=O)Cn1c(=O)oc2cc(S(=O)(=O)NCc3cccs3)ccc21
IC50 [3]: > 64 µM (inactive)

Cc1c(=O)n(OCc2ccccc2F)c2ccccc2[n+]1[O-]
IC50 [5]: 25.6 µM (not active)

COc1cccc(-c2cn(CC[C@@H]3CC[C@@H](NS(=O)(=O)c4ccccc4Cl)[C@H](CO)O3)nn2)c1
AC50 [14]: 5.86 µM (active)

COc1cccc(Cn2c(NCc3ccco3)nc3c2c(=O)n(C)c(=O)n3C)c1
IC50 [6]: > 50 µM (inactive) | AC50 [15]: 3.85 µM (active)
